Data from ChEMBL document CHEMBL4308853, “Design, Synthesis, and Pharmacological Evaluation of Novel β2/3 Subunit-Selective γ-Aminobutyric Acid Type A (GABAA) Receptor Modulators” (J Med Chem, 2018).

Tests used:
Format in all cases: cell-based
[1] = target: T1, GABA A receptor alpha-1/beta-1/gamma-2 (Homo sapiens, UniProt P14867+P18505+P18507); assay: Positive allosteric modulation of GABA-A alpha1beta1gamma2S receptor (unknown origin) expressed in Xenopus laevis oocytes assessed as increase in GABA-induced chloride current after 15 mins at -70 mV holding potential by two-microelectrode voltage clamp method
T1 sequence (P14867 whole entry): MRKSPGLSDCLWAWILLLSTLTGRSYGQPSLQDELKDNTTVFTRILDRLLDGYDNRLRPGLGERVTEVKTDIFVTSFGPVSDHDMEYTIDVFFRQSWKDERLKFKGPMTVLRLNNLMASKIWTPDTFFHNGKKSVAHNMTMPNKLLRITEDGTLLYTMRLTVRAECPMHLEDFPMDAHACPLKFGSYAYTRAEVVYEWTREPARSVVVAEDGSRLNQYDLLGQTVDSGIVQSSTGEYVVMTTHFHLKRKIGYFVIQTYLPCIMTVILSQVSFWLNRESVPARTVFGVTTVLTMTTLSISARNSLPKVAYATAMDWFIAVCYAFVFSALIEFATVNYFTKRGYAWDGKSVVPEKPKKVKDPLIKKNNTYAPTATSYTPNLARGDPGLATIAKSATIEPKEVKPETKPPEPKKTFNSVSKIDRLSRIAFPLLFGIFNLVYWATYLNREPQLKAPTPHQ
T1 sequence (P18507 whole entry): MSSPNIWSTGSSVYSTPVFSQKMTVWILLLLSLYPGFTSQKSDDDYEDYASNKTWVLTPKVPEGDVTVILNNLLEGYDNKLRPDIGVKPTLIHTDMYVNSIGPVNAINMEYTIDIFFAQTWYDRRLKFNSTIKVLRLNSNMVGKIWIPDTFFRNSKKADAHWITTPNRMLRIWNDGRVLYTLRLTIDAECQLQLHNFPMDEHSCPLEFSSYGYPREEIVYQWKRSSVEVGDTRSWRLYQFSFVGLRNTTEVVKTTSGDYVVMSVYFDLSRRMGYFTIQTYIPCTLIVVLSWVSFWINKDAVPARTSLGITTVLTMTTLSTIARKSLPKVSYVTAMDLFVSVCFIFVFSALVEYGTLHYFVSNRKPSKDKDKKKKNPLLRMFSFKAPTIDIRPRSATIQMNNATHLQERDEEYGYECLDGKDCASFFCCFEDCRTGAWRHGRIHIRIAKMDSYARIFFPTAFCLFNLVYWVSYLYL
T1 sequence (P18505 whole entry): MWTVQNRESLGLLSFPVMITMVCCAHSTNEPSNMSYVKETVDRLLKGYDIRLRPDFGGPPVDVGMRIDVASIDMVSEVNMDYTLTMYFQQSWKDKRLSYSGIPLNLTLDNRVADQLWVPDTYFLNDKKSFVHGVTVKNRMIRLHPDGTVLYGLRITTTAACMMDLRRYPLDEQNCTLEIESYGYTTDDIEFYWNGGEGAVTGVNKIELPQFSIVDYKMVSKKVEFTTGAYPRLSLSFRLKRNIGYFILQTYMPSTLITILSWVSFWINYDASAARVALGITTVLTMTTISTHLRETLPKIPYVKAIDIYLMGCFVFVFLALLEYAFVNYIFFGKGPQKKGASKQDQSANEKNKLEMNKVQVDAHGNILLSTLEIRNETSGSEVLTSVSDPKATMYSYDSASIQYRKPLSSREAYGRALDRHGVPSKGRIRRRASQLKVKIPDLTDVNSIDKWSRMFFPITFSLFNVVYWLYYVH

[2] = target: T2, GABA-A receptor; alpha-1/beta-2/gamma-2 (Homo sapiens, UniProt P14867+P18507+P47870); assay: Positive allosteric modulation of GABA-A alpha1beta2gamma2S receptor (unknown origin) expressed in Xenopus laevis oocytes assessed as increase in GABA-induced chloride current after 15 mins at -70 mV holding potential by two-microelectrode voltage clamp method
T2 sequence (P14867 whole entry): T1 sequence (P14867 whole entry)
T2 sequence (P47870 whole entry): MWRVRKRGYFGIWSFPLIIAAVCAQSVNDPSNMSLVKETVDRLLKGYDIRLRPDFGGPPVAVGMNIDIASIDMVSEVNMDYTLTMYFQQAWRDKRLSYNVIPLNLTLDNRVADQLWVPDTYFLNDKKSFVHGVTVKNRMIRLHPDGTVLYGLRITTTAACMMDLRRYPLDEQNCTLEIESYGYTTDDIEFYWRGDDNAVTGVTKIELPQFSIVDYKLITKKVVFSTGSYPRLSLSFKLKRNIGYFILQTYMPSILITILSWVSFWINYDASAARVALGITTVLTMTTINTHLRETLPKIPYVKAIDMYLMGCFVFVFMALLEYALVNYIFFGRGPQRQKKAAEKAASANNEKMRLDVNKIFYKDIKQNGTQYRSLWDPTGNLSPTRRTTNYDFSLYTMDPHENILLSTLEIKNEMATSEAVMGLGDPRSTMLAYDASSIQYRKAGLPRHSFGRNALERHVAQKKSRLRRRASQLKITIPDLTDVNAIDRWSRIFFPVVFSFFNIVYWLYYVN
T2 sequence (P18507 whole entry): T1 sequence (P18507 whole entry)

[3] = target: T3, GABA-A receptor; alpha-1/beta-3/gamma-2 (Homo sapiens, UniProt P14867+P18507+P28472); assay: Positive allosteric modulation of GABA-A alpha1beta3gamma2S receptor (unknown origin) expressed in Xenopus laevis oocytes assessed as increase in GABA-induced chloride current after 15 mins at -70 mV holding potential by two-microelectrode voltage clamp method
T3 sequence (P14867 whole entry): T1 sequence (P14867 whole entry)
T3 sequence (P18507 whole entry): T1 sequence (P18507 whole entry)
T3 sequence (P28472 whole entry): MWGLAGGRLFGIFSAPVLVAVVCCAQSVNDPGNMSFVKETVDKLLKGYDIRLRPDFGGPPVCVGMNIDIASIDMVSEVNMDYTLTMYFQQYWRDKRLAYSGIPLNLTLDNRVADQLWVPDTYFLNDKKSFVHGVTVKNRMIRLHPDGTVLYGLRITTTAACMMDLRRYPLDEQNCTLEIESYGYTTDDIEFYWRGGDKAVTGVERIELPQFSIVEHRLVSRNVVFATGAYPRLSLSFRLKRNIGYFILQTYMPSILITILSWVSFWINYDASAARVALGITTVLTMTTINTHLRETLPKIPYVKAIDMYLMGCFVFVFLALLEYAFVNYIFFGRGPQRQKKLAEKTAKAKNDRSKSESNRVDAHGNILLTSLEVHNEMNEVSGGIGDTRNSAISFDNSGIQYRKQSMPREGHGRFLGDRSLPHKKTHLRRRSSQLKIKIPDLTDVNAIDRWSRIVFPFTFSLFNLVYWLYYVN

Row | SMILES | EC50 [1] [µM] | EC50 [2] [µM] | EC50 [3] [µM]
1 | CC(=CC#N)c1ccc(C)cc1Cl (mixture of isomers) | 271 | 41 | 41
2 | C/C(=C(\C#N)C(N)=O)c1ccc(Cl)cc1Cl |  | 40 | 44
3 | C/C(C#N)=C\c1ccc(Cl)cc1Cl |  |  | 91
4 | CC(CC#N)c1ccc(Cl)cc1Cl (racemic) |  |  | 120
5 | CC(=C(C#N)C(N)=O)c1ccc(Cl)cc1Cl (mixture of isomers) |  |  | 67
